“Also recorded” adds a separate entry of the source. Bounds are passed on as bounds.

This is an account of results in US12059000B1, “Use of erythritol compositions as mammal-safe insecticides” (Drexel University, priority 2020, dated 2024).

In data set [1] the test system is fruit flies. As to the kind of experiment: Comparison of erythritol with other sweet alcohols, fly longevity. It counts as in vivo, Drosophila melanogaster. The following applies: 1 M in standard fly food, 17 days. How it is done:
An experiment was conducted to compare the effectiveness of erythritol with other human-safe sweet alcohols: D-mannitol, maltitol, sucrose, and xylitol. The concentration of all sweet alcohols were 1M.
Flies were raised for 17 days on standard fly food that contained 1 M concentrations of each sweetener treatment. Death of flies was recorded daily as before; each treatment was replicated on three vials of 10 flies each for 30 subjects/treatment. Differences in longevity were analyzed using the Kaplan-Meier survival analysis log rank test, making all pairwise comparisons among treatments.

Data set [2] concerns Drosophila melanogaster. As to the kind of experiment: Erythritol concentration trials on fly longevity. Type of data set: in vivo. How it is done:
Standard fly foods were prepared as previously described, and then were treated with 2M, 1M, 0.5M and 0.1M concentrations of erythritol, using 0.5M sucrose as control. 0 to 24 hour-old Drosophila were placed on these foods and mortality was recorded daily for 35 days as above. Analyses were conducted with SPSS software v. 20 (IBM corporation 2011). Fly longevity data were analyzed using survival analysis with right-hand censoring of subjects that lived to the end of the study or were lost for reasons other than death. Test were run for differences in survival distributions [Pr(flies alive) versus insect age] using the log-rank (Mantel-Cox) test to make all pairwise comparisons among treatments within each experiment.

The test system of data set [3] is fruit flies. The following applies: 0.5 M erythritol food, previous work; cited from earlier work.
A further data set has as its system R. flavipes workers. Nature of the data set: Termite survival experiment on erythritol-treated paper. Type of data set: in vivo, Reticulitermes flavipes. How it is done: Termites used in the survival and choice experiments were collected from three field colonies in Scotland Run Park (39.66° N, 75.05° W) in Clayton, NJ between April and May 2019. After collection, colonies were maintained in plastic containers with soil and wood from the collection site as a substrate in laboratory conditions (20.8±0.9° C., 49±7% RH). Termites used in the consumption experiment were collected from a single field colony at Cobb's Creek Park (39.94° N, 75.24° W) in Philadelphia, PA during September of 2018. Workers were removed from the log and housed within 24 h of collection in 9 cm diameter petri dishes containing damp paper towel as a food source. Dishes were placed in an incubator at 26° C. (relative humidity varied between 40 and 60% across trials, but was consistent among all treatments within each trial). Each petri dish contained 10 workers. Termites used in all experiments measured 3-4 mm in length.
For the survival experiment, unbleached, brown paper towels (12 cmx 24 cm, cat no. 01801, Kimberly-Clark Corporation, Neenah, WI), were completely submerged for 15 s in solution of distilled water, erythritol (100% purity, NOW foods, Bloomingdale, IL) of the below-specified concentrations, and 0.05% Brilliant Blue R-250 dye (cat. no 27816, Sigma-Aldrich, St. Louis, MO). The erythritol concentrations used were: 0 M (control), 0.25 M, 0.5 M, 0.75 M, 1.0 M, and 1.25 M. The treated paper towels were removed from solution and allowed to dry horizontally on racks before being cut into squares with an area of 144 cm^2. […]
Following the pretrial period, the experiment was set up: pretrial paper towels were removed and replaced with treated paper towels of the correct erythritol treatment concentration; these were rehydrated with 750 μL of distilled water. […] Termite mortality was recorded every 24 h for 8 d.
Analyses were performed using SPSS v. […] Mean percent mortality was calculated for each concentration across colonies at 72 and 96 h and a three parameter, best-fit sigmoid curve was fitted to the data in Sigmaplot to assess LC at these time points.

The test system of data set [4] is Drosophila melanogaster. Nature of the data set: Drosophila longevity assay on food containing sweeteners. Type of data set: in vivo. The following applies: repeat with blue food, 0.0238 g/ml. How it is done:
All animals were cultured at 25° C., kept at 50-60% humidity, and were raised under a standard 12:12 light dark cycle. For each experimental treatment, n=30 flies were tested in groups of 10 per tube, and three tubes per treatment. Tubes were kept on their side to minimize subject becoming mired in the food. Foods were replaced twice a week. The total number of fruit flies used for these experiments was 780, with 300 used for two initial trials testing mortality among store-brand sweeteners, 210 used for repeating this with blue dye and pure erythritol, 120 for choice trials and 150 for concentration trials.
Standard Drosophila food for larval culturing consisted of water, cornmeal, yeast, molasses, and agar, as previously described (Chakraborty, et al., 2011, PLoS ONE 6: e20799). […] The addition of cornmeal and yeast assured the flies still received sufficient carbohydrates and protein in addition to any effects of the treatment additives.
Drosophila food was combined with an equal weight/volume (0.0238 g/ml) of one non-nutritive sweetener (TRUVIA, EQUAL, SPLENDA, SWEET'NLOW, or PUREVIA) or a control nutritive sweetener (controls: sucrose or corn syrup). Wild type (Canton S) larvae were initially raised on the standard food, and 0-12 hour old adult flies were transferred to foods containing one non-nutritive sweetener or a control treatment. […] The number of dead flies were scored daily.

The conditions of data set [5]: humans, even in high concentrations; cited from earlier work.
Data set [6] concerns Drosophila melanogaster. Nature of the data set: Two-way choice experiments, fly longevity. Type of data set: in vivo. How it is done:
Foods containing 2 M erythritol, 1M erythritol and 1M sucrose were prepared for paired presentations in open choice tests. In each treatment one food type contained 0.05% brilliant blue FCF (Fisher 50-727-25). The blue dye allowed visual confirmation of feeding on the dyed food in the pair. The flies were presented with access to two food choices by using a modified cotton stopper with approximately a 1.5 cm diameter hole to connect each pair of food tubes.
The final choice treatment was between blue 2M erythritol food and non-blue 1M sucrose food (this treatment provides a comparison with the 1M erythritol/1M erythritol treatment as a test of dilution of toxicity by alternative food sources; blue guts would confirm erythritol was being consumed in the presence of sucrose). The number of flies with visible blue gut contents and mortality daily were recorded for 30 days.
Analyses were conducted with SPSS software v. 20 (IBM corporation 2011). Fly longevity data were analyzed using survival analysis with right-hand censoring of subjects that lived to the end of the study or were lost for reasons other than death. Test were run for differences in survival distributions [Pr(flies alive) versus insect age] using the log-rank (Mantel-Cox) test to make all pairwise comparisons among treatments within each experiment.

`OC[C@@H](O)[C@H](O)[C@@H](O)CO` [xylitol]: in the data set on fruit flies [1], the “fly longevity / insecticidal effect compared to sucrose control” value was “did not differ from sugar control; also recorded: did not differ from the control; also recorded: not effective at reducing fly longevity”.

With `OC[C@@H](O)[C@@H](O[C@H]1O[C@H](CO)[C@@H](O)[C@H](O)[C@H]1O)[C@H](O)[C@@H](O)CO` [maltitol], the “fly longevity / insecticidal effect compared to sucrose control” value in the data set on fruit flies [1] was “did not differ from sugar control; also recorded: did not differ from the control; also recorded: not effective at reducing fly longevity”.

On to `OC[C@@H](O)[C@@H](O)[C@H](O)[C@H](O)CO` [D-mannitol], for which the “fly longevity / insecticidal effect compared to sucrose control” value in the data set with fruit flies [1] was “did not differ from sugar control; also recorded: slightly but significantly reduced longevity; also recorded: almost insignificant insecticidal effect”.

`OC[C@@H](O)[C@@H](O)CO` [erythritol, (2R,3S)-butane-1,2,3,4-tetraol]: the “longevity compared to control food containing 0.5M sucrose” value was “no significant difference in longevity” with Drosophila melanogaster [2] (0.1M in food, 35 days); “significant reductions in longevity” in the data set on Drosophila melanogaster [2] (0.5M in food, 35 days); “significant reductions in longevity” with Drosophila melanogaster [2] (1M in food, 35 days). For the same compound, the “dose response of fly longevity (FIG. 4)” value in the data set with Drosophila melanogaster [2] (0.1M, 0.5M, 1.0M and 2.0M in food) is “significant decrease in longevity of adult flies as concentration of erythritol was increased; also recorded: dose-dependent reduction in longevity”. For the same compound, the “longevity compared to all other treatments” value in the data set with Drosophila melanogaster [2] (2M in food, 35 days) was “significant and severe effect on longevity”. Further, the “time to 50% mortality” value with fruit flies [3] is 20 days; with R. flavipes workers (termites, 0.5 M erythritol filter papers), no more than 2 days. The “longevity of workers to 8 d, erythritol treatments versus 0M control (FIG. 9)” value with R. flavipes workers (0.25-1.25 M treated paper, 8 d) was “All treatments are significantly different from 0 M; also recorded: differed significantly”. The “lowest concentration with significant effects on longevity” value in the data set with R. flavipes workers (R. flavipes workers, 8 d) was found to be 0.25 M. Further, in the data set with Drosophila melanogaster [4], the “longevity compared to PUREVIA, EQUAL, sucrose and corn syrup (FIG. 3)” value is listed as “significant decrease in longevity”. Also, the safety of consumption result in data set [5] is “safe to humans”. Besides, the “fly longevity / insecticidal effect compared to sucrose control” value in the data set with fruit flies [1] was “toxic to fruit flies upon ingestion”. For the same compound, the mean fly longevity in the data set with fruit flies [1] turned out to be 4.7 ± 0.15 days. For the same compound, the “longevity relative to sucrose:sucrose choice (FIG. 5)” value with Drosophila melanogaster [6] (choice between 1M sucrose and 1M erythritol) is on record as “significant decrease in longevity; also recorded: significantly decreased longevity”; with Drosophila melanogaster [6] (choice between 1M sucrose and 2M erythritol), “significant decrease in longevity; also recorded: significantly reduced”.
